Entries after “also recorded” stand apart in the source; their conditions may differ. Where a SMILES comes first, the peptide text is derived from it. [ ]: non-standard residue; d: D form.
How the values were obtained:
[1] = tested on: primary mouse epidermal keratinocytes (1° MK); experiment: UVB-evoked Ca++ signaling in primary mouse keratinocytes (fluo-4 imaging); assay type: cell-based; conditions: for ET1-augmented UVB-evoked Ca++ signaling: UVB and ET1 co-exposure; for UVB-evoked Ca++ signaling: fluo-4 ΔF/F0, GSK205 20 μM
Description: Ca++ imaging of 1° MK was conducted following routine procedures. For UVB stimulation, a customized device was built. The system comprised a printed circuit board for electrical interconnects and mechanical support and an ultraviolet light-emitting diode (UV LED).
The operating wavelength was 295 nm (FIG. 2A), with a full-width half-max of 12 nm. The optical power was 500 mW. The focal point was aimed at the plane of the upper surface of the quartz coverslip, which was used to minimize UV absorption along the optical path towards the cells (FIG. 2A-C). The optical intensity at the focal point was estimated to be 150 mW/mm^2.
(§1) Ca++ imaging of mouse 1° MK in response to chemical activation of TRPV4 was conducted after loading with 2 μM fura2-AM, following a ratiometric Ca2+ imaging protocol with 340/380 nm […] for dual excitation. Ratios of emissions were acquired at 0.5 Hz. ΔR/R0 was determined as the fraction of the increase of a given ratio over baseline ratio, divided by baseline ratio. For stimulation of cells with UVB, where fura-2 was not suitable because of the proximity of stimulation with 340/380 nm and 295 nm, 2 μM fluo4-AM was used instead. Ca++ imaging was carried out at 488 nm excitation, acquisition of emissions at 0.5 Hz, expressed as ΔF/F0. In the custom-built UV optical system, UV LEDs were capped with a ball lens, a transparent optical window in the shape of a hemispherical lens (FIG. 2B). The LED output optical beam focused at 15-20 mm from the lens, with a spot diameter of approximately 1.5˜2.0 mm (FIG. 2C). […] The thermal equilibration stage was set for physiological temperature.
To further dissect the underlying mechanisms involved, we built a customized device for specific and narrow-band UVB stimulation of primary mouse epidermal keratinocytes (1° MK) cultured in vitro (FIG. 6A-B and FIG. 2A-D). This allowed use of the Ca++ sensitive dye, fluo-4, and assessment of 1° MK's Ca++ dynamics following UVB exposure (FIG. 6B). The elicited Ca++ signal was obliterated by a UV-refracting glass coverslip, underscoring the strict dependence of the calcium response on UVB (FIG. 6C and FIG. 2A).

ET1 secretion by 1° MK = experiment: ET1 secretion by non-stimulated 1° MK (ELISA of supernatant); assay type: cell-based, mouse
Description: FIG. 8: Central role for KC TRPV4 in UVB-evoked Ca^++ signaling and nocifensive behavior—ET1-related supplementary findings. (A) Augmentation of GSK101-evoked Ca^++ signaling by ET1. Shown are averaged Ca^++ measurements (fura-2) in response to 5 nM GSK101. […] (B) ET1 secretion by non-stimulated 1° MK depends on TRPV4 and PLC. Shown are relative ET1 concentrations (determined by ELISA, pg/mL; vehicle-treated and WT control normalized to 100) in supernatant of non-stimulated 1° MK. Note the clear dependence on TRPV4, as indicated by a 50% reduction in Trpv4^−/− 1° MK. […] In addition, PLC-inhibitor robustly affects ET1 secretion in WT and Trpv4^−/− 1° MK. (C) ET1 expression by UVB-exposed 1° MK depends on TRPV4 and PLC—immunocytochemistry. Shown is specific ET1 immunolabeling in 1° MK, exposed to UVB using the UVB-LEDs, as for Ca^++ imaging. Use of the UVB-LED device precluded application of a ET1 ELISA, only irradiated cells could be examined. […] (D) ET1 expression by UVB-exposed 1° MK depends on TRPV4 and PLC—quantification of immunocytochemistry.
(§2) We tested whether UVB causes ET1 upregulation in a TRPV4-dependent manner. Given the exquisite wave-length dependence of ET1 expression in 1° MKs, we resorted to the UVB-LED device as for Ca++ imaging (FIG. 6A and FIG. 2A-D). […] Consistent with its effects on UVB-evoked Ca++ transients, PLC-inhibitor U73122 also dampened ET1 expression. […] This leads to TRPV4-dependent Ca++ signaling, which in turn amplifies ET1 signaling in a paracrine/autocrine fashion.

ET1 expression in 1° MK = experiment: ET1 expression by UVB-exposed 1° MK (immunocytochemistry); assay type: cell-based, mouse; conditions: 295 nm UVB-LED, 24 hours
Description: 1° MK were exposed to UVB using the UV optical system (295 nm LED). 24 hours later the cells were fixed and fluorescently immunolabeled for ET1. Digital images were captured and subjected to morphometry.
Mouse keratinocytes were cultured on collagen coated quartz coverslips and then stimulated from the bottom using the previously mentioned UV optical system using the 295 nm LED. 24 hours later the cells were fixed in 4% formaldehyde in PBS for 20 minutes, permeabilized with 0.1% Triton X-100 in PBS for 10 minutes, washed, then blocked in 10% normal goat serum in PBS for 45 minutes. Coverslips were incubated overnight with primary antibody mouse anti-ET1 (1:200; Abcam), washed three times in PBS and incubated with secondary antibody for 2 hours at 25° C. Coverslips were washed three times in PBS, once with double-distilled H2O. Digital images were captured using a 40× immersion lens on the BX61 Olympus upright microscope. Morphometric analysis was conducted using ImageJ freeware with tailored regions-of-interest.
as §2

TRPV4 [2] = biological target: T1, TRPV4 (Mus musculus, UniProt Q9EPK8); experiment: GSK101-evoked Ca++ transient in 1° MK (fura-2); assay type: cell-based; conditions: 5 nM GSK101
T1 construct: Primary mouse keratinocytes were derived from back skin of newborn mice; endogenous in cells; host or cells: primary mouse epidermal keratinocytes (1° MK), wild type
T1 sequence (Q9EPK8 whole entry): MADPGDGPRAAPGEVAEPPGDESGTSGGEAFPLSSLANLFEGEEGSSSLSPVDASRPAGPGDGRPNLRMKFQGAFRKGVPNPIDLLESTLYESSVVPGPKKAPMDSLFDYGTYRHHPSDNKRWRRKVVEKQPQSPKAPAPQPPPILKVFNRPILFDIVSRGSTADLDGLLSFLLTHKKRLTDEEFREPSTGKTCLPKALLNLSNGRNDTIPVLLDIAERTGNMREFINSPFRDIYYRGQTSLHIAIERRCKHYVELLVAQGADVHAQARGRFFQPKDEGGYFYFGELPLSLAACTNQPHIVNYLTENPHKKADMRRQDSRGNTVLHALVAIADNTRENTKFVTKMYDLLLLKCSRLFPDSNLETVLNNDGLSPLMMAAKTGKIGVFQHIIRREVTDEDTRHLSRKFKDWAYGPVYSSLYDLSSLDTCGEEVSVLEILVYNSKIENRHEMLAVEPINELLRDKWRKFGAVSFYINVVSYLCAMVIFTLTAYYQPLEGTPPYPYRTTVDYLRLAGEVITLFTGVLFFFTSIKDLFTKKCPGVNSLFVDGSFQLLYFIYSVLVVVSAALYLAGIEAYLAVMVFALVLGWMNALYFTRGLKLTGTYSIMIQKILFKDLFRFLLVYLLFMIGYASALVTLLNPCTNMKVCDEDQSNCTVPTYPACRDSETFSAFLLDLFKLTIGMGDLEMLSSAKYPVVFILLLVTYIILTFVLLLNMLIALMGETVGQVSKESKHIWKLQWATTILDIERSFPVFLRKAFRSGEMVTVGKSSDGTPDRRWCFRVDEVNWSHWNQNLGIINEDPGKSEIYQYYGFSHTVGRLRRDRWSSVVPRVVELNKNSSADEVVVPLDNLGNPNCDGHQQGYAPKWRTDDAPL
Description: as §1, with “temperature. We confirmed the non-thermal nature of UVB stimulation using the customized 295 nm LED device in a dedicated experiment (FIG. 2D), thus confirming the specific modality of stimulation as UVB.” for “temperature.”
We obtained corroborating findings by chemically activating TRPV4 with GSK101, which can directly stimulate TRPV4 in WT 1° MK. […]

TRPV4 [3] = biological target: T1, TRPV4; experiment: 4α-PDD-evoked Ca++ signaling in 1° MK with ET1 co-application; assay type: cell-based; conditions: fura-2, ET1 co-application
Description: FIG. 7: Central role for keratinocyte TRPV4 in UVB-evoked Ca++ signaling and nocifensive behavior—effects of ET1. (A) Effects of ET1 on UVB-evoked Ca++ signaling in 1° MKs. […] Panel (iii) illustrates the complete elimination of the ET1-augmented Ca++ transients when both subtypes of ET(R) are blocked. (B) 4α-PDD-evoked Ca++ signaling in 1° MKs—ET1-related findings. […] Quantifications are for n=3 mice/group. *** denotes statistically significant (p<0.001, t-test). (D) Nocifensive behavior in response to ET1 footpad injection depends on epidermal TRPV4. Bar diagram summarizes behavioral findings for Trpv4−/−vs. WT and for oil-treated vs. tam-treated iKO mice. […] Trpv4−/− and tam-treated iKO mice fail to respond; n≥7 mice/group, ** p<0.01, ANOVA.
Ca++ imaging of mouse 1° MK in response to chemical activation of TRPV4 was conducted after loading with 2 μM fura2-AM, following a ratiometric Ca2+ imaging protocol with 340/380 nm […] for dual excitation. Ratios of emissions were acquired at 0.5 Hz. ΔR/R0 was determined as the fraction of the increase of a given ratio over baseline ratio, divided by baseline ratio. For stimulation of cells with UVB, where fura-2 was not suitable because of the proximity of stimulation with 340/380 nm and 295 nm, 2 μM fluo4-AM was used instead. Ca++ imaging was carried out at 488 nm excitation, acquisition of emissions at 0.5 Hz, expressed as ΔF/F0. […]

Compound | UVB-evoked Ca++ signaling [1] | ET1 secretion by non-stimulated 1° MK (ET1 secretion by 1° MK) | ET1 immunoreactivity in UVB-exposed 1° MK (ET1 expression in 1° MK) | further results
CC(C)C[C@@H]1NC(=O)[C@@H](C(C)C)NC(=O)[C@@H]2CCCN2C(=O)[C@@H](CC(=O)O)NC(=O)[C@@H](Cc2c[nH]c3ccccc23)NC1=O [BQ123] (cyclo(L[dW][dD]P[dV])) |  |  |  | ET1-augmented UVB-evoked Ca++ signaling [1]: attenuated
CCCC[C@@H](NC(=O)[C@@H](Cc1cn(C(=O)OC)c2ccccc12)NC(=O)[C@H](CC(C)(C)C)NC(=O)N1[C@H](C)CCC[C@@H]1C)C(=O)O [BQ788] |  |  |  | ET1-augmented UVB-evoked Ca++ signaling [1]: attenuated
O=C(O)C(Cc1ccc2c(c1)oc1ccccc12)NCP(=O)(O)O (centres unmarked) [CGS35066] | significantly diminished; also recorded: significant attenuation | down-regulation of ET1 secretion | significant down-regulation | 
COc1ccc2c(c1)CC[C@@H]1[C@@H]2CC[C@]2(C)[C@@H](NCCCCCCN3C(=O)C=CC3=O)CC[C@@H]12 [Compound U73122] | virtually eliminated; also recorded: strongly reduced | down-regulation of ET1 secretion | dampened; also recorded: significant down-regulation | 
C=C(C)CCO[P@@](=O)(O)OP(=O)(O)O [IPP, isopentenyl pyrophosphate] | no effect; also recorded: not inhibited |  |  | 
CC(C)NCCN(C(C)C)S(=O)(=O)c1ccc(Cl)cc1Cl [RN1734] |  | significant down-regulation | diminished; also recorded: significant down-regulation | 
endothelin-1 [ET1] | significant increase; also recorded: augmentation |  |  | GSK101-evoked Ca++ signaling on co-exposure to ET1 (TRPV4 [2]): augmented; also recorded: increase in signal; 4α-PDD-evoked Ca++ response (TRPV4 [3]): significant increase

Reference: US11229628B2, “TRPA1 and TRPV4 inhibitors and methods of using the same for organ-specific inflammation and itch” (Duke University, priority 2015, dated 2022)
